According to patent US11345694B2, “Antibacterial compounds” (DISCUVA LTD., priority 2017, dated 2022):
≈ marks a conversion by molar mass, not a printed value.

How the values were obtained:
[1] = test system: K. pneumoniae NCTC 13438 (KP1); assay: MIC broth microdilution; assay type: cell-based, Klebsiella pneumoniae; conditions: Klebsiella pneumoniae, NCTC13438
Description: (§1) Minimum Inhibitory Concentrations (MICs) versus planktonic bacteria are determined by the broth microdilution procedure according to the guidelines of the Clinical and Laboratory Standards Institute (Clinical and Laboratory Standards Institute. Methods for Dilution Antimicrobial Susceptibility Tests for Bacteria That Grow Aerobically; Approved Standard-tenth Edition. CLSI document M07-A10, 2015). The broth dilution method involves a two-fold serial dilution of compounds in 96-well microtitre plates, giving a final concentration range of 0.39-200 μM and a maximum final concentration of 2% DMSO. The bacterial strains tested include Escherichia coli K12 (EC), E. coli NCTC 13441 (UPEC), Staphylococcus aureus ATCC 35556 (SA), Acinetobacter baumannii ATCC 17978 (AB), Pseudomonas aeruginosa ATCC 33359 (PA), Enterobacter cloacae DSM 30054 (Ed), Serratia marcescens SL1344 (Sm), Salmonella typhimurium XNAA5 (St), Klebsiella pneumoniae ATCC 10031 (KP2), K. pneumoniae NCTC 13438 (KP1), K. pneumoniae ATCC 700603 (KP3), Klebsiella pneumoniae ATCC 51504 (KP4), K. pneumoniae H154680676 (KP5), K. pneumoniae H154020667 (KP6), K. pneumoniae H154640784 (KP7), K. pneumoniae H154600588 (KP8), K. pneumoniae H154300688 (KP9), K. pneumoniae H151440671 (KP10). Strains are grown in cation-adjusted Müller-Hinton broth or on Luria Bertoni agar at 37° C. in an ambient atmosphere. The MIC is determined as the lowest concentration of compound that inhibits growth following a 20-24 hour incubation period.

[2] = test system: Staphylococcus aureus ATCC 35556 (SA); assay: MIC broth microdilution; assay type: cell-based; conditions: ATCC35556
Description: as §1

[3] = test system: Acinetobacter baumannii ATCC 17978 (AB); assay: MIC broth microdilution; assay type: cell-based; conditions: ATCC17978
Description: as §1

[4] = test system: Escherichia coli K12 (EC); assay: MIC broth microdilution; assay type: cell-based
Description: as §1

[5] = test system: Klebsiella pneumoniae ATCC 10031 (KP2); assay: MIC broth microdilution; assay type: cell-based; conditions: ATCC10031
Description: as §1

[6] = test system: Pseudomonas aeruginosa ATCC 33359 (PA); assay: MIC broth microdilution; assay type: cell-based; conditions: ATCC33359
Description: as §1

[7] = test system: human hepatocarcinoma cell line ATCC HB-8065 (HepG2); assay: Human cell viability (CellTiter-Glo); assay type: cell-based; conditions: Homo sapiens; HepG2 cells, 24 h incubation, CellTiter-Glo luminescence, 0.2-100 μM; read-out: IC50 values against the HepG2 cell line
Description: Compounds are assessed for potential non-specific cytotoxic effects against the human hepatocarcinoma cell line ATCC HB-8065 (HepG2). HepG2 cells are seeded at 20,000 cells/well in 96-well microtitre plates in minimal essential medium (MEM) supplemented with a final concentration of 10% FBS. After 24 h, compound dilutions are prepared in MEM supplemented with a final concentration of 1% FBS, and added to the cells. Compounds are tested in two-fold serial dilutions over a final concentration range of 0.2-100 μM in a final DMSO concentration of 1% vol/vol. Thioridazine is used as a positive control. Cells are incubated with compound at 37° C. and 5% CO2 for a further 24 h, after which time the CellTiter-Glo reagent (Promega) is added. Luminescence is measured on a Perkin Elmer Envision plate reader. Data are analysed using a 4 parameter logistic regression to determine the concentration of compound that inhibits cell viability by fifty percent (IC50).

[8] = test system: E. coli NCTC 13441 (UPEC); assay: MIC broth microdilution; assay type: cell-based, Escherichia coli; conditions: Escherichia coli, NCTC13441
Description: as §1

SMILES	MIC [1] [µM]	MIC [2] [µM]	MIC [3] [µM]	MIC [4] [µM]	MIC [5] [µM]	MIC [6] [µM]	IC50 [7] [µM]	MIC [8] [µM]
Cc1cc(-c2[nH]c(N)nc2-c2ccc3c(c2)NC(=O)CO3)ccn1 [Example 51, 6-(2-Amino-5-(2-methylpyridin-4-yl)-1H-imidazol-4-yl)-2H-benzo[b][1,4]oxazin-3(4H)-one]	10 to 100 (≈ 3.21 to 32.1 µg/mL)	> 100	> 100	1 to 10 (≈ 0.321 to 3.21 µg/mL)	≤ 1	> 100	> 100	1 to 10 (≈ 0.321 to 3.21 µg/mL)
CNc1cc(-c2[nH]c(N)nc2-c2ccc3c(c2)NCCO3)ccn1 [Example 40, 4-(2-Amino-4-(3,4-dihydro-2H-benzo[b][1,4]oxazin-6-yl)-1H-imidazol-5-yl)-N-methylpyridin-2-amine]	1 to 10 (≈ 0.322 to 3.22 µg/mL)	> 100	> 100	1 to 10 (≈ 0.322 to 3.22 µg/mL)	≤ 1	> 100	> 100	≤ 1
Cc1cc(-c2[nH]c(N)nc2-c2ccc(OCC#N)cc2)ccn1 [Example 35, 2-(4-(2-Amino-5-(2-methylpyridin-4-yl)-1H-imidazol-4-yl)phenoxy)acetonitrile]	10 to 100 (≈ 3.05 to 30.5 µg/mL)	> 100	> 100	1 to 10 (≈ 0.305 to 3.05 µg/mL)	≤ 1	> 100	> 100	1 to 10 (≈ 0.305 to 3.05 µg/mL)
COC(=O)CCN1CCOc2ccc(-c3nc(N)[nH]c3-c3ccnc(C)c3)cc21 [Example 61, Methyl 3-(6-(2-amino-5-(2-methylpyridin-4-yl)-1H-imidazol-4-yl)-2,3-dihydro-4H-benzo[b][1,4]oxazin-4-yl)propanoate]	1 to 10 (≈ 0.393 to 3.93 µg/mL)	> 100	> 100	1 to 10 (≈ 0.393 to 3.93 µg/mL)	≤ 1	> 100	> 100	1 to 10 (≈ 0.393 to 3.93 µg/mL)
Cc1cc(-c2[nH]c(N)nc2-c2ccc3c(c2)NC(=O)C(C)O3)ccn1 (stereo not drawn) [Example 33, 6-(2-Amino-5-(2-methylpyridin-4-yl)-1H-imidazol-4-yl)-2-methyl-2H-benzo[b][1,4]oxazin-3(4H)-one]	10 to 100 (≈ 3.35 to 33.5 µg/mL)	> 100	> 100	1 to 10 (≈ 0.335 to 3.35 µg/mL)	≤ 1	> 100	> 100	1 to 10 (≈ 0.335 to 3.35 µg/mL)
Cc1cc(-c2[nH]c(N)nc2-c2cc3c(cc2F)OCC(=O)N3)ccn1 [Example 54, 6-(2-Amino-5-(2-methylpyridin-4-yl)-1H-imidazol-4-yl)-7-fluoro-2H-benzo[b][1,4]oxazin-3(4H)-one]	10 to 100 (≈ 3.39 to 33.9 µg/mL)	> 100	> 100	1 to 10 (≈ 0.339 to 3.39 µg/mL)	≤ 1	> 100	> 100	1 to 10 (≈ 0.339 to 3.39 µg/mL)
Cc1cc(-c2[nH]c(Cl)nc2-c2ccc3c(c2)OCCO3)ccn1 [Example 83, 4-(2-Chloro-4-(2,3-dihydrobenzo[b][1,4]dioxin-6-yl)-1H-imidazol-5-yl)-2-methylpyridine]	> 100	> 100	> 100	1 to 10 (≈ 0.328 to 3.28 µg/mL)	≤ 1	> 100	> 100	1 to 10 (≈ 0.328 to 3.28 µg/mL)
Cc1cc(-c2[nH]c(N)nc2-c2ccc3c(c2)NCC(=O)O3)ccn1 [Example 53, 6-(2-Amino-5-(2-methylpyridin-4-yl)-1H-imidazol-4-yl)-3,4-dihydro-2H-benzo[b][1,4]oxazin-2-one]	10 to 100 (≈ 3.21 to 32.1 µg/mL)	> 100	> 100	1 to 10 (≈ 0.321 to 3.21 µg/mL)	≤ 1	> 100	> 100	1 to 10 (≈ 0.321 to 3.21 µg/mL)
Cc1cc(-c2[nH]c(N)nc2-c2cc3c(cc2F)OCCO3)ccn1 [Example 59, 4-(7-Fluoro-2,3-dihydrobenzo[b][1,4]dioxin-6-yl)-5-(2-methylpyridin-4-yl)-1H-imidazol-2-amine]	10 to 100 (≈ 3.26 to 32.6 µg/mL)	> 100	> 100	≤ 1	≤ 1	> 100	> 100	≤ 1
Cc1cc(-c2[nH]c(N)nc2-c2ccc3nccnc3c2)ccn1 [Example 31, 5-(2-Methylpyridin-4-yl)-4-(quinoxalin-6-yl)-1H-imidazol-2-amine]	10 to 100 (≈ 3.02 to 30.2 µg/mL)	> 100	> 100	1 to 10 (≈ 0.302 to 3.02 µg/mL)	≤ 1	> 100	> 100	1 to 10 (≈ 0.302 to 3.02 µg/mL)
Cc1cc(-c2[nH]c(N)nc2-c2ccc3oc(C)nc3c2)ccn1 [Example 37, 4-(2-Methylbenzo[d]oxazol-5-yl)-5-(2-methylpyridin-4-yl)-1H-imidazol-2-amine]	10 to 100 (≈ 3.05 to 30.5 µg/mL)	> 100	> 100	1 to 10 (≈ 0.305 to 3.05 µg/mL)	≤ 1	> 100	> 100	1 to 10 (≈ 0.305 to 3.05 µg/mL)
Cc1cc(-c2[nH]c(N)nc2-c2ccc3c(c2)NCCO3)cc(C)n1 [Example 36, 4-(3,4-Dihydro-2H-benzo[b][1,4]oxazin-6-yl)-5-(2,6-dimethylpyridin-4-yl)-1H-imidazol-2-amine]	1 to 10 (≈ 0.321 to 3.21 µg/mL)	> 100	> 100	1 to 10 (≈ 0.321 to 3.21 µg/mL)	≤ 1	> 100	> 100	≤ 1
Cc1cc(-c2nc(N)[nH]c2-c2ccc(OC3CC3)c(F)c2)ccn1 [Example 14, 5-(4-Cyclopropoxy-3-fluorophenyl)-4-(2-methylpyridin-4-yl)-1H-imidazol-2-amine]	1 to 10 (≈ 0.324 to 3.24 µg/mL)	> 100	> 100	≤ 1	≤ 1	> 100	> 100	≤ 1
Cc1cc(-c2[nH]c(N)nc2-c2cc(F)c3c(c2)NC(=O)CO3)ccn1 [Example 50, 6-(2-Amino-5-(2-methylpyridin-4-yl)-1H-imidazol-4-yl)-8-fluoro-2H-benzo[b][1,4]oxazin-3(4H)-one]	10 to 100 (≈ 3.39 to 33.9 µg/mL)	> 100	> 100	1 to 10 (≈ 0.339 to 3.39 µg/mL)	≤ 1	> 100	> 100	1 to 10 (≈ 0.339 to 3.39 µg/mL)
Cc1cc(-c2[nH]c(N)nc2-c2ccc3c(c2)N(C)CCO3)ccn1 [Example 44, 4-(4-Methyl-3,4-dihydro-2H-benzo[b][1,4]oxazin-6-yl)-5-(2-methylpyridin-4-yl)-1H-imidazol-2-amine]	1 to 10 (≈ 0.321 to 3.21 µg/mL)	> 100	> 100	1 to 10 (≈ 0.321 to 3.21 µg/mL)	≤ 1	> 100	> 100	1 to 10 (≈ 0.321 to 3.21 µg/mL)
Cc1cc(-c2[nH]c(N(C)C)nc2-c2ccc3c(c2)OCCO3)ccn1 [Example 75, 4-(2,3-Dihydrobenzo[b][1,4]dioxin-6-yl)-N,N-dimethyl-5-(2-methylpyridin-4-yl)-1H-imidazol-2-amine]	> 100	> 100	> 100	10 to 100 (≈ 3.36 to 33.6 µg/mL)	1 to 10 (≈ 0.336 to 3.36 µg/mL)	> 100	> 100	10 to 100 (≈ 3.36 to 33.6 µg/mL)
COc1cccc(-c2nc(N)[nH]c2-c2ccnc(C)c2)c1 [Example 25, 4-(3-Methoxyphenyl)-5-(2-methylpyridin-4-yl)-1H-imidazol-2-amine]	10 to 100 (≈ 2.8 to 28 µg/mL)	> 100	> 100	10 to 100 (≈ 2.8 to 28 µg/mL)	≤ 1	> 100	> 100	10 to 100 (≈ 2.8 to 28 µg/mL)
Cc1cc(-c2[nH]c(CN)nc2-c2ccc3c(c2)NCCO3)ccn1 [Compound 88]	10 to 100 (≈ 3.21 to 32.1 µg/mL)	> 100	> 100	1 to 10 (≈ 0.321 to 3.21 µg/mL)	≤ 1	> 100	> 100	1 to 10 (≈ 0.321 to 3.21 µg/mL)
